Test results: patent US11497212B2, “Substituted thiophenyl uracils, salts thereof and the use thereof as herbicidal agents” (Syngenta Crop Protection AG, priority 2017, dated 2022)

Experiments:
Format in all cases: in vivo
[1] = system: Pharbitis purpurea; test: Herbicidal action pre-emergence (greenhouse pot trial); settings: application rate 320 g/ha
In short: (§1)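 Pots containing sown seeds beneath a soil layer were sprayed with the test formulations at an application rate of 320 g/ha or lower. Percent efficacy was assigned by eye about three weeks afterwards, with dead plants scored as 100%.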

[2] = system: Stellaria media; test: as above; settings: application rate 320 g/ha, scored after about 3 weeks
In short: as §1

[3] = system: Setaria viridis; test: as above; settings: application rate 320 g/ha, scored after about 3 weeks
In short: as §1

[4] = system: Echinochloa crus-galli; test: as above; settings: application rate 320 g/ha, scored after about 3 weeks
In short: as §1

[5] = system: Alopecurus myosuroides; test: as above; settings: application rate 320 g/ha, scored after about 3 weeks
In short: as §1

[6] = system: Viola tricolor; test: as above; settings: application rate 320 g/ha, scored after about 3 weeks
In short: as §1

[7] = system: Avena fatua; test: as above; settings: application rate 320 g/ha
In short: as §1

[8] = system: Matricaria inodora; test: as above; settings: application rate 320 g/ha, scored after about 3 weeks
In short: as §1

[9] = system: Abutilon theophrasti; test: as above; settings: application rate 320 g/ha, scored after about 3 weeks
In short: as §1

[10] = system: Amaranthus retroflexus; test: as above; settings: application rate 320 g/ha, scored after about 3 weeks
In short: as §1

[11] = system: Veronica persica; test: as above; settings: application rate 320 g/ha
In short: as §1

[12] = system: Hordeum murinum; test: as above; settings: application rate 320 g/ha
In short: as §1

[13] = system: Lolium rigidum; test: as above; settings: application rate 320 g/ha
In short: as §1

[14] = system: Pharbitis purpurea; test: Herbicidal action post-emergence (greenhouse pot trial); settings: application rate 80 g/ha
In short: (§2)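 Percent herbicidal efficacy, assessed by eye about 3 weeks after spraying, compares treated with untreated plants. Treatment is a post-emergence spray at the one-leaf stage, using a WP or EC preparation plus 0.5% additive in 600 L/ha of water, at 80 g/ha or lower.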

[15] = system: Polygonum convolvulus; test: as above; settings: application rate 80 g/ha, scored visually after about 3 weeks vs untreated controls
In short: as §2

[16] = system: Stellaria media; test: as above; settings: application rate 80 g/ha, scored visually after about 3 weeks vs untreated controls
In short: as §2

[17] = system: Setaria viridis; test: as above; settings: application rate 80 g/ha, scored visually after about 3 weeks vs untreated controls
In short: as §2

[18] = system: Echinochloa crus-galli; test: as above; settings: application rate 80 g/ha, scored visually after about 3 weeks vs untreated controls
In short: as §2

[19] = system: Alopecurus myosuroides; test: as above; settings: application rate 80 g/ha, scored visually after about 3 weeks vs untreated controls
In short: as §2

[20] = system: Viola tricolor; test: as above; settings: application rate 80 g/ha
In short: as §2

[21] = system: Avena fatua; test: as above; settings: application rate 80 g/ha, scored visually after about 3 weeks vs untreated controls
In short: as §2

[22] = system: Matricaria inodora; test: as above; settings: application rate 80 g/ha, scored visually after about 3 weeks vs untreated controls
In short: as §2

[23] = system: Abutilon theophrasti; test: as above; settings: application rate 80 g/ha, scored visually after about 3 weeks vs untreated controls
In short: as §2

[24] = system: Amaranthus retroflexus; test: as above; settings: application rate 80 g/ha, scored visually after about 3 weeks vs untreated controls
In short: as §2

[25] = system: Veronica persica; test: as above; settings: application rate 80 g/ha
In short: as §2

[26] = system: Hordeum murinum; test: as above; settings: application rate 80 g/ha, scored visually after about 3 weeks vs untreated controls
In short: as §2

[27] = system: Lolium rigidum; test: as above; settings: application rate 80 g/ha, scored visually after about 3 weeks vs untreated controls
In short: as §2

[28] = system: Zea mays; test: Crop compatibility pre-emergence (greenhouse pot trial); settings: effect vs untreated controls
In short: (§3)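 After soil-surface application of each compound to freshly sown pots (aqueous spray, 600 L/ha, 0.5% additive), plants grew under greenhouse conditions. Around 3 weeks later, injury was estimated visually on a 0–100% scale against controls.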

[29] = system: Oryza sativa; test: Crop compatibility post-emergence (greenhouse pot trial)
In short: (§4)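 Visual % rating about 3 weeks post-treatment against untreated plants (100% dead, 0% unaffected). Post-emergence spray of aqueous WP/EC preparations with 0.5% additive at 600 L/ha water, applied at one-leaf stage to greenhouse pot-grown crops in sandy loam.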

[30] = system: Glycine max; test: as above
In short: as §4

[31] = system: Triticum aestivum; test: as above
In short: as §4

[32] = system: Zea mays; test: as above
In short: as §4

[33] = system: Cyperus esculentus; test: Herbicidal action pre-emergence (greenhouse pot trial); settings: application rate 320 g/ha
In short: as §1

[34] = system: Glycine max; test: Crop compatibility pre-emergence (greenhouse pot trial); settings: application rate 80 g/ha, effect vs untreated controls
In short: as §3

SMILES	Pharbitis purpurea (Efficacy in %) [1] [%]	Stellaria media (Efficacy in %) [2] [%]	Setaria viridis (Efficacy in %) [3] [%]	Echinochloa crus-galli (Efficacy in %) [4] [%]	Alopecurus myosuroides (Efficacy in %) [5] [%]	Viola tricolor (Efficacy in %) [6] [%]	Avena fatua (Efficacy in %) [7] [%]	Matricaria inodora (Efficacy in %) [8] [%]	Abutilon theophrasti (Efficacy in %) [9] [%]	Amaranthus retroflexus (Efficacy in %) [10] [%]	Hordeum murinum (Efficacy in %) [12] [%]	Lolium rigidum (Efficacy in %) [13] [%]	Pharbitis purpurea (Efficacy in %) [14] [%]	Polygonum convolvulus (Efficacy in %) [15] [%]	Stellaria media (Efficacy in %) [16] [%]	Setaria viridis (Efficacy in %) [17] [%]	Echinochloa crus-galli (Efficacy in %) [18] [%]	Viola tricolor (Efficacy in %) [20] [%]	Matricaria inodora (Efficacy in %) [22] [%]	Abutilon theophrasti (Efficacy in %) [23] [%]	also measured
CON(C(=O)C(C)Sc1cc(-n2c(=O)cc(C(F)(F)F)n(C)c2=O)c(F)cc1Cl)C1CCOC1 (stereo not shown) [I.1-341]	100	100	100	100	90	100	90	100	100	100	80	100	100	100	100	100	100	100	100	100	Veronica persica (Efficacy in %) [11]: 100%; Alopecurus myosuroides (Efficacy in %) [19]: 90%; Avena fatua (Efficacy in %) [21]: 90%; Amaranthus retroflexus (Efficacy in %) [24]: 100%; Veronica persica (Efficacy in %) [25]: 100%; Hordeum murinum (Efficacy in %) [26]: 90%; Lolium rigidum (Efficacy in %) [27]: 100%; Zea mays (Efficacy in %) ([28]; application rate 80 g/ha): 0%; Oryza sativa (Efficacy in %) ([29]; application rate 5 g/ha): 10%; Glycine max (Efficacy in %) ([30]; application rate 25 g/ha): 10%; Triticum aestivum (Efficacy in %) ([31]; application rate 20 g/ha): 10%; Zea mays (Efficacy in %) ([32]; application rate 20 g/ha): 10%
CC(Sc1cc(-n2c(=O)cc(C(F)(F)F)n(C)c2=O)c(F)cc1Cl)C(=O)OCC1CCCO1 (stereo not shown) [I.1-71]	100	100	100	100	100	100	90	100	100	100	90	90	100	100	100	100	100	100	100	100	Veronica persica (Efficacy in %) [11]: 100%; Cyperus esculentus (Efficacy in %) [33]: 80%; Amaranthus retroflexus (Efficacy in %) [24]: 100%; Veronica persica (Efficacy in %) [25]: 100%; Hordeum murinum (Efficacy in %) [26]: 80%; Glycine max (Efficacy in %) [34]: 0%; Zea mays (Efficacy in %) ([28]; application rate 80 g/ha): 0%; Oryza sativa (Efficacy in %) ([29]; application rate 5 g/ha): 20%; Glycine max (Efficacy in %) ([30]; application rate 20 g/ha): 20%; Triticum aestivum (Efficacy in %) ([31]; application rate 80 g/ha): 20%; Zea mays (Efficacy in %) ([32]; application rate 80 g/ha): 20%
CC(Sc1cc(-n2c(=O)cc(C(F)(F)F)n(C)c2=O)c(F)cc1Cl)C(=O)NCC1CCCO1 (stereo not shown) [I.1-221]	100	100	100	100	90	100	100	100	100	100	100	100	100	100	100	100	100	100	100	100	Cyperus esculentus (Efficacy in %) [33]: 100%; Alopecurus myosuroides (Efficacy in %) [19]: 90%; Avena fatua (Efficacy in %) [21]: 80%; Amaranthus retroflexus (Efficacy in %) [24]: 100%; Veronica persica (Efficacy in %) [25]: 100%; Hordeum murinum (Efficacy in %) [26]: 80%; Lolium rigidum (Efficacy in %) [27]: 90%; Zea mays (Efficacy in %) ([28]; application rate 20 g/ha): 0%; Oryza sativa (Efficacy in %) ([29]; application rate 20 g/ha): 0%; Triticum aestivum (Efficacy in %) ([31]; application rate 20 g/ha): 20%; Zea mays (Efficacy in %) ([32]; application rate 5 g/ha): 10%
